For 17 molecules, inhibition results are on record in patent US8173689B2 (Novartis AG, priority 2006, dated 2012).

One assay has as its target T1, kinase domain of cKIT (Homo sapiens, UniProt P10721).
T1 construct: The kinase domain of cKIT was assayed in 50 mM Hepes; purchased Upstate 14-559
In words: Inhibition of cKIT kinase signaling in an in vitro biochemical assay (alphascreen). The conditions noted are these: tested at about 1 μM; compounds of Table 3; read-out: cKit percent inhibition.

Assay [1] has as its target T2, full-length human CSF-1R receptor (Homo sapiens, UniProt P07333).
T2 construct: transfected with the full-length human CSF-1R receptor cloned in house; expressed in transfected cells; host or cells: HEK293H (Invitrogen Cat. #11631017)
In words: In vitro inhibition of CSF-1R receptor tyrosine phosphorylation in transfected HEK293H cells stimulated with MCSF. The settings on record: HEK293-H, tested at about 1 μM; compounds of Table 3; read-out: pCSF1R percent inhibition. It is filed as cell-based. How it is done: The lysate was then transferred to total CSF-1R antibody coated 96-well plates that had already been blocked with 3% Blocker A from Mesoscale discovery (MSD) for 2 hours and washed afterwards. Lysates were incubated overnight at 4° C. and the plates were then washed 4× with MSD Tris Wash Buffer. […] The plates were read on the Sector 6000 instrument (MSD). Raw data was imported in Abase and EC50s calculated with XL-fit data analysis software.

The target of assay [2] is T3, cytoplasmic domain of the human CSF-1R (Homo sapiens, UniProt P07333).
T3 construct: Recombinant protein corresponding to the cytoplasmic domain of the human CSF-1R; purchased Invitrogen Corporation, Carlsbad, Calif; PV3249
T3 sequence (P07333 539-972 limits assumed): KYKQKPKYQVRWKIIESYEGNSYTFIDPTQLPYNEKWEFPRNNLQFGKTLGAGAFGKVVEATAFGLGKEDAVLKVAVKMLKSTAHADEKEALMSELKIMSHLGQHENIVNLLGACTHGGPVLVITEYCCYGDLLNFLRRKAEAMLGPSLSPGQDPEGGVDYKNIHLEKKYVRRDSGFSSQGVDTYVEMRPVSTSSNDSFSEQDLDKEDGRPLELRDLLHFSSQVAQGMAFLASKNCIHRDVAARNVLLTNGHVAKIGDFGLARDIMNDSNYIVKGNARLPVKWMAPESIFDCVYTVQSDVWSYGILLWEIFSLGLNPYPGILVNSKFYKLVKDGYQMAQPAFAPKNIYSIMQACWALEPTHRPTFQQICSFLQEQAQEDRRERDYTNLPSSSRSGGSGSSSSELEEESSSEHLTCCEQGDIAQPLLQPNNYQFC
In words: In vitro kinase assay for colony stimulating factor-1 receptor (AlphaScreen). It is filed as biochemical. The conditions noted are these: tested at about 1 μM; compounds of Table 3; read-out: CSF-1R percent inhibition. Put shortly:
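Kinase reaction used 4 nM recombinant cytoplasmic domain at 1 μM ATP in 50 mM Hepes pH 7.5 with 5 mM MgCl2, 10 mM MnCl2, 0.1% BSA, 1.0 mM DTT and 0.01% Tween 80. Compounds were serially diluted 3-fold from 25 μM. Phosphopeptide was detected by AlphaScreen, PT66 anti-phosphotyrosine acceptor plus streptavidin donor beads, read after overnight incubation.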
On the technique in general: In Alpha technology, singlet oxygen from a donor bead excites a nearby acceptor bead.

The target of a further assay is T4, kinase domain of PDGFRβ (Homo sapiens, UniProt P09619).
T4 construct: The kinase domain of PDGFRβ was assayed in 50 mM Hepes; purchased Invitrogen P3082
T4 sequence (P09619 600-962 limits assumed): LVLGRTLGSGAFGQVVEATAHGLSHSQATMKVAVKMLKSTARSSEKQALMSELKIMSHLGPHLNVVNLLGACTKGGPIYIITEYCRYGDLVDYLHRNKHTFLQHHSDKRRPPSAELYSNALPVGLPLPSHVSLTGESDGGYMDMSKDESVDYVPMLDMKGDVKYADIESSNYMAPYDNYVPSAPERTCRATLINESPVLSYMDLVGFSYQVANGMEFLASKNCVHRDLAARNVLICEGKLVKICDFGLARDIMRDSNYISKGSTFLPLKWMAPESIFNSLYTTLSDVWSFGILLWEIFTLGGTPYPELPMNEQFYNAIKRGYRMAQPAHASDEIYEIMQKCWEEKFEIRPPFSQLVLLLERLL
Kind of assay: Inhibition of PDGFRb kinase signaling in an in vitro biochemical assay (alphascreen). The settings on record: tested at about 1 μM; compounds of Table 3; read-out: PDGFRβ percent inhibition.

The subject of assay [3] is MNFS60 (murine AML cells). Kind of assay: Cell viability assay in MCSF dependent MNFS60 cells (Cell Titer Glo). It is filed as cell-based. The settings on record: Mus musculus, tested at about 1 μM; compounds of Table 3; read-out: M-NFS-60 CP percent inhibition. Put shortly: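 Three-fold serial compound dilutions, prepared in DMSO at 500× the final level, were applied alongside MCSF (final 10 ng/ml). Incubation lasted 72 hrs (37° C., 5% CO2) before CellTiter-Glo addition. Triplicate points were curve-fitted for EC50.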
(In general: In ATP-based viability assays light output follows the ATP content of the culture.)

T2 sequence (P07333 20-972): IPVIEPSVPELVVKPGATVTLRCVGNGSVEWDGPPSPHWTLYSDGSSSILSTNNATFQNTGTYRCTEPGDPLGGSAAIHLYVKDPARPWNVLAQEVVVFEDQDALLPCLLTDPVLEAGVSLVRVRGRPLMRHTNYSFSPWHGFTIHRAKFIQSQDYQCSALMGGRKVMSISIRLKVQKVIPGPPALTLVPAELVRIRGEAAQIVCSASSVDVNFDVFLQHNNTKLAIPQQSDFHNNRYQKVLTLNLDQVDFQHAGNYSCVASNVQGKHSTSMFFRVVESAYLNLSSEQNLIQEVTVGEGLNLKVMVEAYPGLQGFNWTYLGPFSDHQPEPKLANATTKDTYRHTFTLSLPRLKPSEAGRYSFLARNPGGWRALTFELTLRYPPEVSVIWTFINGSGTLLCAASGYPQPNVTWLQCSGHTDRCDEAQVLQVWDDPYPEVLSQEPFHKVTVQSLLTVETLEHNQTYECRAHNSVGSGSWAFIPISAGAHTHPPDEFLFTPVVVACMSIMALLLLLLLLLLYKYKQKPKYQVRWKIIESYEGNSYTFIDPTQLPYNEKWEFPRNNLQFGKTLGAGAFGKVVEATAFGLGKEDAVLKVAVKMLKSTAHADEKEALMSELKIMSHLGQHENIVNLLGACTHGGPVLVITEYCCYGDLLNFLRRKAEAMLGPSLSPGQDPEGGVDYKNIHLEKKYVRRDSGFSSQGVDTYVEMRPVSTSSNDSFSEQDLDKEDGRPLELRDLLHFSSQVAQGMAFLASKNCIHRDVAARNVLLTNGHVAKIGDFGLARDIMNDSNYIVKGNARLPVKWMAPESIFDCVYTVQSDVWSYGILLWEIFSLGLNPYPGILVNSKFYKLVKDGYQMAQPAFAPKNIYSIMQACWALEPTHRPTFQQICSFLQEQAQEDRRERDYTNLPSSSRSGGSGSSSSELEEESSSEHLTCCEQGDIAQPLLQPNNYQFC
T1 sequence (P10721 589-937 limits assumed): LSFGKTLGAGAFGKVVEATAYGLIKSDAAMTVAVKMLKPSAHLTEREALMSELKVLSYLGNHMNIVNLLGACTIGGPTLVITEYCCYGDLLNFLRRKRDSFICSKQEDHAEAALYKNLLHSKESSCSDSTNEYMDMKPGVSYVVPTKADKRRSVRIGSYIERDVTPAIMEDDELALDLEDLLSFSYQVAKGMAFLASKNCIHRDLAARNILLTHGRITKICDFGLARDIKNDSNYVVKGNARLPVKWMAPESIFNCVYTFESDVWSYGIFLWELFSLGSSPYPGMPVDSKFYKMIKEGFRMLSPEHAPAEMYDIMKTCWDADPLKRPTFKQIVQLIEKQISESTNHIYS

`O[C@@H]1CCCC[C@H]1Nc1nc2ccc(Oc3ccnc4cc(OC(F)(F)F)ccc34)cc2s1` [Example 230, (1R,2R)-2-(6-(7-(trifluoromethoxy)quinolin-4-yloxy)benzo[d]thiazol-2-ylamino)cyclohexanol]: the inhibition at 1 µM was found to be 6% on kinase domain of cKIT; 65% in assay [1]; 100% in assay [2]; 14% at kinase domain of PDGFRβ; 58% in assay [3].

Consider `Cc1c[nH]c(-c2cc(Oc3ccc4nc(N[C@@H]5CCCC[C@H]5O)sc4c3)ccn2)n1` [Example 231, (1R,2R)-2-(6-(2-(4-methyl-1H-imidazol-2-yl)pyridin-4-yloxy)benzo[d]thiazol-2-ylamino)cyclohexanol], for which the inhibition at 1 µM on kinase domain of cKIT was found to be 9%; in assay [1], 99%; in assay [2], 100%; on kinase domain of PDGFRβ it was 49%; in assay [3], 100%.

For `Cc1nc(-c2cc(Oc3ccc4nc(N[C@@H]5CCCC[C@H]5O)sc4c3)ccn2)[nH]c1C` [Example 232, (1R,2R)-2-(6-(2-(4,5-dimethyl-1H-imidazol-2-yl)pyridin-4-yloxy)benzo[d]thiazol-2-ylamino)cyclohexanol], the inhibition at 1 µM on kinase domain of cKIT worked out at 34%; in assay [1], 99%; in assay [2], 100%; at kinase domain of PDGFRβ, 64%; in assay [3], 100%.

As to `O[C@H]1Cc2ccccc2[C@H]1Nc1nc2ccc(Oc3ccnc4ccccc34)cc2s1` [Example 237, (1R,2S)-1-(6-(quinolin-4-yloxy)benzo[d]thiazol-2-ylamino)-2,3-dihydro-1H-inden-2-ol], the inhibition at 1 µM at kinase domain of cKIT was 24%; in assay [1], 94%; in assay [2], 100%; on kinase domain of PDGFRβ, 13%; in assay [3], 100%.

Turning to `OC[C@H](Nc1nc2ccc(Oc3ccnc4ccccc34)cc2s1)C1CCCCC1` [Example 240, (R)-2-cyclohexyl-2-(6-(quinolin-4-yloxy)benzo[d]thiazol-2-ylamino)ethanol], the inhibition at 1 µM on kinase domain of cKIT was 21%; in assay [1], 71%; in assay [2] it was 100%; on kinase domain of PDGFRβ it was 16%; in assay [3], 66%.

Turning to `C[C@H](Nc1nc2ccc(Oc3ccnc4ccccc34)cc2s1)C1CCCCC1` [Example 241, (S)-N-(1-cyclohexylethyl)-6-(quinolin-4-yloxy)benzo[d]thiazol-2-amine], the inhibition at 1 µM on kinase domain of cKIT amounted to 25%; in assay [1] it was 65%; in assay [2], 100%; at kinase domain of PDGFRβ it was 23%; in assay [3] it was 51%.

As to `CC(C)[C@@H](CO)Nc1nc2ccc(Oc3ccnc4ccccc34)cc2s1` [Example 244, (S)-3-methyl-2-(6-(quinolin-4-yloxy)benzo[d]thiazol-2-ylamino)butan-1-ol], the inhibition at 1 µM at kinase domain of cKIT turned out to be 25%; in assay [1], 85%; in assay [2], 100%; on kinase domain of PDGFRβ it was 35%; in assay [3], 67%.

As for `CC(C)C[C@H](CO)Nc1nc2ccc(Oc3ccnc4ccccc34)cc2s1` [Example 245, (R)-4-methyl-2-(6-(quinolin-4-yloxy)benzo[d]thiazol-2-ylamino)pentan-1-ol], the inhibition at 1 µM is 16% on kinase domain of cKIT; 81% in assay [1]; 100% in assay [2]; 21% on kinase domain of PDGFRβ; 53% in assay [3].

Consider `CC(C)(C)[C@@H](CO)Nc1nc2ccc(Oc3ccnc4ccccc34)cc2s1` [Example 248, (S)-3,3-dimethyl-2-(6-(quinolin-4-yloxy)benzo[d]thiazol-2-ylamino)butan-1-ol], for which the inhibition at 1 µM was found to be 33% on kinase domain of cKIT; 39% in assay [1]; 100% in assay [2]; 41% at kinase domain of PDGFRβ; 51% in assay [3].

As to `c1ccc2c(Oc3ccc4nc(N[C@@H]5C[C@H]6CC[C@@H]5C6)sc4c3)ccnc2c1` [Example 251, N-((1R,2R,4S)-bicyclo[2.2.1]heptan-2-yl)-6-(quinolin-4-yloxy)benzo[d]thiazol-2-amine], the inhibition at 1 µM at kinase domain of cKIT came out at 56%; in assay [1], 74%; in assay [2], 100%; at kinase domain of PDGFRβ it was 28%; in assay [3], 80%.

Take `c1ccc2c(Oc3ccc4nc(NC5CCCCC5)sc4c3)ccnc2c1` [Example 256, N-cyclohexyl-6-(quinolin-4-yloxy)benzo[d]thiazol-2-amine]: the inhibition at 1 µM at kinase domain of cKIT came out at 71%; in assay [1], 87%; in assay [2], 100%; at kinase domain of PDGFRβ, 3%; in assay [3], 87%.

With `O[C@@H]1CCCC[C@H]1Nc1nc2ccc(Oc3ccnc(-c4nc5c([nH]4)CCCC5)c3)cc2s1` [Example 258, (1R,2R)-2-(6-(2-(4,5,6,7-tetrahydro-1H-benzo[d]imidazol-2-yl)pyridin-4-yloxy)benzo[d]thiazol-2-ylamino)cyclohexanol], the inhibition at 1 µM amounted to 44% at kinase domain of cKIT; 99% in assay [1]; 100% in assay [2]; 62% on kinase domain of PDGFRβ; 100% in assay [3].

For the molecule `O[C@@H]1CCCC[C@H]1Nc1nc2ccc(Oc3ccnc(-c4cnn(CCF)c4)c3)cc2s1` [Example 259, (1R,2R)-2-(6-(2-(1-(2-fluoroethyl)-1H-pyrazol-4-yl)pyridin-4-yloxy)benzo[d]thiazol-2-ylamino)cyclohexanol], the inhibition at 1 µM on kinase domain of cKIT was determined as 24%; in assay [1], 98%; in assay [2], 100%; on kinase domain of PDGFRβ, 6%; in assay [3], 100%.

As to `COCCn1cc(-c2cc(Oc3ccc4nc(N[C@@H]5CCCC[C@H]5O)sc4c3)ccn2)cn1` [Example 260, (1R,2R)-2-(6-(2-(1-(2-methoxyethyl)-1H-pyrazol-4-yl)pyridin-4-yloxy)benzo[d]thiazol-2-ylamino)cyclohexanol], the inhibition at 1 µM on kinase domain of cKIT is 25%; in assay [1], 98%; in assay [2], 100%; at kinase domain of PDGFRβ, 0%; in assay [3], 100%.

As to `Nc1ccc(-c2cc(Oc3ccc4nc(N[C@@H]5CCCC[C@H]5O)sc4c3)ccn2)cn1` [Example 261, (1R,2R)-2-(6-(6'-amino-2,3'-bipyridin-4-yloxy)benzo[d]thiazol-2-ylamino)cyclohexanol], the inhibition at 1 µM at kinase domain of cKIT came out at 25%; in assay [1], 98%; in assay [2], 100%; on kinase domain of PDGFRβ it was 30%; in assay [3], 100%.

Consider `O[C@@H]1CCCC[C@H]1Nc1nc2ccc(Oc3ccnc(-n4ccnc4)c3)cc2s1` [Example 262, (1R,2R)-2-(6-(2-(1H-imidazol-1-yl)pyridin-4-yloxy)benzo[d]thiazol-2-ylamino)cyclohexanol], for which the inhibition at 1 µM on kinase domain of cKIT was 20%; in assay [1], 48%; in assay [2] it was 100%; at kinase domain of PDGFRβ, 3%; in assay [3] it was 46%.

As to `O[C@@H]1CCCC[C@H]1Nc1nc2ccc(Oc3ccnc4c(F)cccc34)cc2s1` [Example 263, (1R,2R)-2-(6-(8-fluoroquinolin-4-yloxy)benzo[d]thiazol-2-ylamino)cyclohexanol], the inhibition at 1 µM came to 12% on kinase domain of cKIT; 24% in assay [1]; 99% in assay [2]; 0% at kinase domain of PDGFRβ; 22% in assay [3].

As a reminder, the inhibition is the share of the control response that was lost under treatment.
